Assay results taken from ChEMBL document CHEMBL3045088, “Synthesis and cytotoxic activity of genistein derivatives” (2010).

Assays:
Assay type in all cases: functional
SGC-7901 = assay: Growth inhibition of Homo sapiens (human) SGC7901 cells by MTT assay
HL-60 = assay: Growth inhibition of Homo sapiens (human) HL60 cells by MTT assay
HT-29 = assay: Growth inhibition of Homo sapiens (human) HT-29 cells by MTT assay

Compound: CC(=O)Oc1ccc(-c2coc3cc(OC(C)=O)cc(O)c3c2=O)cc1 [4',7-DIACETOXY-5-HYDROXYGENISTEIN]
- GI (SGC-7901): 11.24 µM
- GI (HL-60): 5.86 µM
- GI (HT-29): 19.4 µM

Compound: CCCOc1ccc(-c2coc3cc(OC(F)F)cc(OCCC)c3c2=O)cc1 [4',5-DI-N-PROPOXY-7-GEM-DIFLUOROMETHYLENATED GENISTEIN]
- GI (SGC-7901): 2.15 µM
- GI (HL-60): 0.54 µM
- GI (HT-29): 2.5 µM

Compound: O=c1c(-c2ccc(OCc3ccccc3)cc2)coc2cc(OC(F)F)cc(OCc3ccccc3)c12 [4',5-DIBENZYLOXY-7-GEM-DIFLUOROMETHYLENATED GENISTEIN]
- GI (SGC-7901): 4.24 µM
- GI (HL-60): 1.29 µM
- GI (HT-29): 2.82 µM

Compound: CCOc1ccc(-c2coc3cc(OC(F)F)cc(OCC)c3c2=O)cc1 [4',5-DIETHOXY-7-GEM-DIFLUOROMETHYLENATED GENISTEIN]
- GI (SGC-7901): 5.51 µM
- GI (HL-60): 1.75 µM
- GI (HT-29): 11.2 µM

Compound: CCCCCCCCCCOc1ccc(-c2coc3cc(OCCCCCCCCCC)cc(O)c3c2=O)cc1 [4',7-DIDECYLOXY-5-HYDROXYGENISTEIN]
- GI (SGC-7901): 4.27 µM
- GI (HL-60): 3.09 µM
- GI (HT-29): 11.6 µM

Compound: COc1cc(O)c2c(=O)c(-c3ccc(O)cc3)coc2c1 [PRUNETIN]
- GI (SGC-7901): 3.94 µM
- GI (HL-60): 4.35 µM
- GI (HT-29): 5.11 µM

Compound: CCCCCCCCOc1ccc(-c2coc3cc(OCCCCCCCC)cc(O)c3c2=O)cc1 [4',7-DIOCTYLOXY-5-HYDROXYGENISTEIN]
- GI (SGC-7901): 4.82 µM
- GI (HL-60): 1.62 µM
- GI (HT-29): 10.8 µM

Compound: O=c1c(-c2ccc(O)cc2)coc2cc(OC(F)F)cc(O)c12 [7-GEM-DIFLUOROMETHYLENATED GENISTEIN]
- GI (SGC-7901): 4.59 µM
- GI (HL-60): 3.53 µM
- GI (HT-29): 4.56 µM

Compound: C=CCOc1ccc(-c2coc3cc(OCC=C)cc(O)c3c2=O)cc1 [4',7-DIALLYLOXY-5-HYDROXYGENISTEIN]
- GI (SGC-7901): 6.51 µM
- GI (HL-60): 3.44 µM
- GI (HT-29): 14.2 µM

Compound: CCCCCCCOc1ccc(-c2coc3cc(OC(F)F)cc(OCCCCCCC)c3c2=O)cc1 [4',5-DI-N-HEPTOXY-7-GEM-DIFLUOROMETHYLENATED GENISTEIN]
- GI (SGC-7901): 3.39 µM
- GI (HL-60): 1.41 µM
- GI (HT-29): 5.25 µM

Compound: COc1ccc(-c2coc3cc(OC)cc(O)c3c2=O)cc1 [4',7-DIMETHOXY-5-HYDROXYGENISTEIN]
- GI (SGC-7901): 7.78 µM
- GI (HL-60): 5.14 µM
- GI (HT-29): 4.18 µM

Compound: O=c1c(-c2ccc(O)cc2)coc2cc(O)cc(O)c12 [GENISTEIN]
- GI (SGC-7901): 5.78 µM
- GI (HL-60): 4.82 µM
- GI (HT-29): 4.11 µM

Compound: CCCCCCCCCCOc1ccc(-c2coc3cc(OC(F)F)cc(OCCCCCCCCCC)c3c2=O)cc1 [4',5-DI-N-DECOXY-7-GEM-DIFLUOROMETHYLENATED GENISTEIN]
- GI (SGC-7901): 3.3 µM
- GI (HL-60): 1.63 µM
- GI (HT-29): 14.26 µM

Compound: O=c1c(-c2ccc(OC(F)F)cc2)coc2cc(OC(F)F)cc(O)c12 [4',7-DI-GEM-DIFLUOROMETHYLENATED GENISTEIN]
- GI (SGC-7901): 5.54 µM
- GI (HL-60): 5.5 µM
- GI (HT-29): 5.35 µM

Compound: COc1ccc(-c2coc3cc(OC(F)F)cc(OC)c3c2=O)cc1 [4',5-DIMETHOXY-7-GEM-DIFLUOROMETHYLENATED GENISTEIN]
- GI (SGC-7901): 6.41 µM
- GI (HL-60): 4.61 µM
- GI (HT-29): 9.83 µM

Compound: CC(=O)Oc1cc(O)c2c(=O)c(-c3ccc(O)cc3)coc2c1 [7-ACETOXY-4',5-DIHYDROXYGENISTEIN]
- GI (SGC-7901): 8.11 µM
- GI (HL-60): 4.95 µM
- GI (HT-29): 4.21 µM

Compound: CCCCCCCCOc1ccc(-c2coc3cc(OC(F)F)cc(OCCCCCCCC)c3c2=O)cc1 [4',5-DI-N-OCTOXY-7-GEM-DIFLUOROMETHYLENATED GENISTEIN]
- GI (SGC-7901): 1.64 µM
- GI (HL-60): 0.47 µM
- GI (HT-29): 1.86 µM
